Experimental findings from PMC9856672, “SGC-CAMKK2-1: A Chemical Probe for CAMKK2” (Cells, 2023) are described below.

One test has as its target T1, p38-beta (Homo sapiens, UniProt Q15759).
T1 construct: purchased Eurofins DiscoverX KINOMEscan
The test is described as follows: KINOMEscan 1 μM, p38-beta. It counts as binding. Particulars: 1000 nM; Entrez MAPK11; read-out: Percent Control. An excerpt:
(§1) Supplement cells-12-00287-s001.zip/File S2. KinomeScan data for the CAMKK2 probe and negative control.xlsx, sheet "SGC-CAMKK2-1" | column: Percent Control

The target in another test is T2, MAP3K1 (Homo sapiens, UniProt Q13233).
T2 construct: purchased Eurofins DiscoverX KINOMEscan
As to the kind of experiment: KINOMEscan 1 μM, MAP3K1. Format: binding. Particulars: 1000 nM; Entrez MAP3K1; read-out: Percent Control.
Description: as §1

The target in test [1] is T3, EGFR(L747-E749del, A750P) (Homo sapiens, UniProt P00533, A750P/DEL747-749).
T3 construct: purchased Eurofins DiscoverX KINOMEscan
The test is described as follows: KINOMEscan 1 μM, EGFR(L747-E749del, A750P). Format: binding. Particulars: 1000 nM; Entrez EGFR; read-out: Percent Control.
Description: as §1

Another test has as its target T4, MRCKA (Homo sapiens, UniProt Q5VT25).
T4 construct: purchased Eurofins DiscoverX KINOMEscan
The test is described as follows: KINOMEscan 1 μM, MRCKA. It counts as binding. Particulars: 1000 nM; Entrez CDC42BPA; read-out: Percent Control.
Description: as §1

In the next test the target is T5, MAP3K3 (Homo sapiens, UniProt Q99759).
T5 construct: purchased Eurofins DiscoverX KINOMEscan
The test is described as follows: KINOMEscan 1 μM, MAP3K3. It counts as binding. Particulars: 1000 nM; Entrez MAP3K3; read-out: Percent Control.
Description: as §1

In the next test the test system is EGFR(L747-T751del,Sins). As to the kind of experiment: KINOMEscan 1 μM, EGFR(L747-T751del,Sins). It counts as binding, human. The settings on record: 1000 nM; Entrez EGFR.
Description: as §1

For a further test, the target named is T6, ERK2 (Homo sapiens, UniProt P28482).
T6 construct: purchased Eurofins DiscoverX KINOMEscan
The test is described as follows: KINOMEscan 1 μM, ERK2. Particulars: 1000 nM; Entrez MAPK1; read-out: Percent Control. It counts as binding.
Description: as §1

The next test concerns the target T7, RIOK1 (Homo sapiens, UniProt Q9BRS2).
T7 construct: purchased Eurofins DiscoverX KINOMEscan
The test is described as follows: KINOMEscan 1 μM, RIOK1. It counts as binding. The settings on record: 1000 nM; Entrez RIOK1; read-out: Percent Control.
Description: as §1

Another test concerns the target T8, MARK1 (Homo sapiens, UniProt Q9P0L2).
T8 construct: purchased Eurofins DiscoverX KINOMEscan
The test is described as follows: KINOMEscan 1 μM, MARK1. Particulars: 1000 nM; Entrez MARK1; read-out: Percent Control. Format: binding.
Description: as §1

The target of another test is T9, PCTK2 (Homo sapiens, UniProt Q00537).
T9 construct: purchased Eurofins DiscoverX KINOMEscan
T9 sequence (Q00537 whole entry): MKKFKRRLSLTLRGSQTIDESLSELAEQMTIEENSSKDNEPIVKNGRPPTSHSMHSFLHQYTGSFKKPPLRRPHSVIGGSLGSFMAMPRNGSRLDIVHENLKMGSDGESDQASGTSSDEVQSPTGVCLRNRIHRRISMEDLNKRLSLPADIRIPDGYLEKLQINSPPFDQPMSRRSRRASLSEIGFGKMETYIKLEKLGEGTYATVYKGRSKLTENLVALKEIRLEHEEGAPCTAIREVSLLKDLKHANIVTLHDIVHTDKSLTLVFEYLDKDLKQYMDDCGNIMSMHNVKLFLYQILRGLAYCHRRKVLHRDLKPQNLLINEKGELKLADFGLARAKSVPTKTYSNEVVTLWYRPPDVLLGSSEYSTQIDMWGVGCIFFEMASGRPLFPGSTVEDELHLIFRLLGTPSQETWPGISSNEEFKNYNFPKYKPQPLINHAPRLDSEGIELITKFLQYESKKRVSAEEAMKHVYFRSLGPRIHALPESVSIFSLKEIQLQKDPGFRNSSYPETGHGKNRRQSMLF
The test is described as follows: DiscoverX KINOMEscan binding assay at 1 μM, PCTK2. Particulars: PCTK2 (CDK17); Compound Concentration 1000 nM; read-out: Percent Control.
Description: as §1

Another test has as its target T10, ULK1 (Homo sapiens, UniProt O75385).
T10 construct: purchased Eurofins DiscoverX KINOMEscan
As to the kind of experiment: KINOMEscan 1 μM, ULK1. Particulars: 1000 nM; Entrez ULK1; read-out: Percent Control. It counts as binding.
Description: as §1

For a further test, the target named is T11, NEK3 (Homo sapiens, UniProt P51956).
T11 construct: purchased Eurofins DiscoverX KINOMEscan
T11 sequence (P51956 whole entry): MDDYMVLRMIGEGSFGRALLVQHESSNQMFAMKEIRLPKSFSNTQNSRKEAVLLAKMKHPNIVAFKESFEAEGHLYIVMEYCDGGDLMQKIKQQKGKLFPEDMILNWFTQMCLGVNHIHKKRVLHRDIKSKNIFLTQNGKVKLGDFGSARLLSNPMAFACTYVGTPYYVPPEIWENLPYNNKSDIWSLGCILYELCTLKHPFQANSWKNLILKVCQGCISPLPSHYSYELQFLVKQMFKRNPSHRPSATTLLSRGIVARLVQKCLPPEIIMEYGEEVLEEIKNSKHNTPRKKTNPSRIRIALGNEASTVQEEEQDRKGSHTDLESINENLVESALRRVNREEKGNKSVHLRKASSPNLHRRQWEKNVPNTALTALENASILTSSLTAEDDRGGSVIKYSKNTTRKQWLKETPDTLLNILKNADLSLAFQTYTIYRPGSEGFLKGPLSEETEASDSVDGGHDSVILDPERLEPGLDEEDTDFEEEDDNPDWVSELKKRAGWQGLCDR
The test is described as follows: KINOMEscan 1 μM, NEK3. It counts as binding. Particulars: 1000 nM; Entrez NEK3; read-out: Percent Control.
Description: as §1

Another test deals with T12, LZK (Homo sapiens, UniProt O43283).
T12 construct: purchased Eurofins DiscoverX KINOMEscan
As to the kind of experiment: KINOMEscan 1 μM, LZK. Format: binding. Particulars: 1000 nM; Entrez MAP3K13; read-out: Percent Control.
Description: as §1

In another test the target is T13, EPHB6 (Homo sapiens, UniProt O15197).
T13 construct: purchased Eurofins DiscoverX KINOMEscan
As to the kind of experiment: KINOMEscan 1 μM, EPHB6. It counts as binding. The settings on record: 1000 nM; Entrez EPHB6; read-out: Percent Control.
Description: as §1

For a further test, the target named is T14, FGR (Homo sapiens, UniProt P09769).
T14 construct: purchased Eurofins DiscoverX KINOMEscan
The test is described as follows: KINOMEscan 1 μM, FGR. The settings on record: 1000 nM; Entrez FGR; read-out: Percent Control. Format: binding.
Description: as §1

The target of another test is T15, TRPM6 (Homo sapiens, UniProt Q9BX84).
T15 construct: purchased Eurofins DiscoverX KINOMEscan
T15 sequence (Q9BX84 whole entry): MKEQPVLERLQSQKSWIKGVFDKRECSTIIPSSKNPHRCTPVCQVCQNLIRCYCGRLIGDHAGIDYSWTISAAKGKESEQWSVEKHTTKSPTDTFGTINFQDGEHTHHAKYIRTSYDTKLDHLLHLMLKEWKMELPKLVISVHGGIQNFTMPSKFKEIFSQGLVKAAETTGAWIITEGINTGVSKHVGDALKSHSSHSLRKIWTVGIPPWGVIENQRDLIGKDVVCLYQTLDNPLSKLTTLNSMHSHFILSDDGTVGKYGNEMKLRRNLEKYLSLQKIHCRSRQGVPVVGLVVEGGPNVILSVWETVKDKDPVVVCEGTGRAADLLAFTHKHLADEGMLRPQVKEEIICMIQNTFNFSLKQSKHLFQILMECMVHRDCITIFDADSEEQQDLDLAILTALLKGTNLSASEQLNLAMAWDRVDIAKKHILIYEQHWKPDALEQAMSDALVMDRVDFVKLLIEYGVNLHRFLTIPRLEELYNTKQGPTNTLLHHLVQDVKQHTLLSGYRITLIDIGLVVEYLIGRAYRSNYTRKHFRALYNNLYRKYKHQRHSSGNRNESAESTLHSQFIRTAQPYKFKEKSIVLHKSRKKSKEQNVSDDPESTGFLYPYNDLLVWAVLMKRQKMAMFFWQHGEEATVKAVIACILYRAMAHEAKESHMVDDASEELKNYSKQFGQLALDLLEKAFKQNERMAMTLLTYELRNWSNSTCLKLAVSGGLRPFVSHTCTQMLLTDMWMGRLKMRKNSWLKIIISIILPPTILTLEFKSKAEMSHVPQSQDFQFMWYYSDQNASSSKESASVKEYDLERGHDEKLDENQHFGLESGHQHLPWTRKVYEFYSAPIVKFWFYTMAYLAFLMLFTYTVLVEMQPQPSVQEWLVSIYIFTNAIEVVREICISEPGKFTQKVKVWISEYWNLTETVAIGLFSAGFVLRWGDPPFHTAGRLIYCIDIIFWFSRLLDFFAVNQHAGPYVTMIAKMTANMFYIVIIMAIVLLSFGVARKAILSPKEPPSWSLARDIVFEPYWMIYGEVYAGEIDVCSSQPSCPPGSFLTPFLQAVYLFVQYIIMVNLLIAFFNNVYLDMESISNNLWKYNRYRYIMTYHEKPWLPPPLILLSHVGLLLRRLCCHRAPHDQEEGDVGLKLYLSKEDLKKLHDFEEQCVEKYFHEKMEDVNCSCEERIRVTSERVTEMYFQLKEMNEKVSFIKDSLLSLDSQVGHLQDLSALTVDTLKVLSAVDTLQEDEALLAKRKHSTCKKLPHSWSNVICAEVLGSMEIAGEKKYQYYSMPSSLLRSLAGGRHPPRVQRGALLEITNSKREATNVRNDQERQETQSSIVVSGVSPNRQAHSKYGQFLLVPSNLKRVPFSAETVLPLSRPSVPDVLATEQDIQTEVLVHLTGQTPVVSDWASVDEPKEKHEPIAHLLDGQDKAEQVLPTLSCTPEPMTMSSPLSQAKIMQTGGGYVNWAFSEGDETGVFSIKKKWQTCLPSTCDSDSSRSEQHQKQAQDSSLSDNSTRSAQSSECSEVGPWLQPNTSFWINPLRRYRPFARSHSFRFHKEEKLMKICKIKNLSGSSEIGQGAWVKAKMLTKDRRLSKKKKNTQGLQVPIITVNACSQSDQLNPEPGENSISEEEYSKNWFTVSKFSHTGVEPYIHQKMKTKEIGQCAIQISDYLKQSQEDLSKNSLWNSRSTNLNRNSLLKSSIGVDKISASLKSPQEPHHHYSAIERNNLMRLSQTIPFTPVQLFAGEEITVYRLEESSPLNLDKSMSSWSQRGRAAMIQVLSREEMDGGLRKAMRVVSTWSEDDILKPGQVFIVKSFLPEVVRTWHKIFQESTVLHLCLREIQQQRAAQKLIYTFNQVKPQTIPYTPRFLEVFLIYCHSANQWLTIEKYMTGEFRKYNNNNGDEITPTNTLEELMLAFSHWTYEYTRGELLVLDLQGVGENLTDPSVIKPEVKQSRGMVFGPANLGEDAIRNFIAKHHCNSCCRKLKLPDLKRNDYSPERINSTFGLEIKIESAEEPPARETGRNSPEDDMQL
As to the kind of experiment: DiscoverX KINOMEscan binding assay at 1 μM, TRPM6. The settings on record: Compound Concentration 1000 nM, read-out: Percent Control.
Description: as §1

For another test, the target named is T16, ICK (Homo sapiens, UniProt Q9UPZ9).
T16 construct: purchased Eurofins DiscoverX KINOMEscan
The test is described as follows: KINOMEscan 1 μM, ICK. Format: binding. The settings on record: 1000 nM; Entrez ICK; read-out: Percent Control.
Description: as §1

The target in the next test is T17, MET(M1250T) (Homo sapiens, UniProt P08581, M1250T).
T17 construct: purchased Eurofins DiscoverX KINOMEscan
As to the kind of experiment: KINOMEscan 1 μM, MET(M1250T). Format: binding. Particulars: 1000 nM; Entrez MET; read-out: Percent Control.
Description: as §1

The target of another test is T18, EPHA3 (Homo sapiens, UniProt P29320).
T18 construct: purchased Eurofins DiscoverX KINOMEscan
As to the kind of experiment: KINOMEscan at 1 μM, EPHA3. Format: binding. The settings on record: 1000 nM, read-out: Percent Control. An excerpt:
(§2) Supplement cells-12-00287-s001.zip/File S2. KinomeScan data for the CAMKK2 probe and negative control.xlsx, sheet "SGC-CAMKK2-1N" | column: Percent Control

The target of another test is T19, ITK (Homo sapiens, UniProt Q08881).
T19 construct: purchased Eurofins DiscoverX KINOMEscan
The test is described as follows: KINOMEscan binding assay at 1 μM, ITK. Particulars: Compound Concentration 1000 nM; read-out: Percent Control.
Description: as §2

Another test concerns the target T20, CAMK1 (Homo sapiens, UniProt Q14012).
T20 construct: purchased Eurofins DiscoverX KINOMEscan
The test is described as follows: KINOMEscan at 1 μM, CAMK1. It counts as binding. Particulars: 1000 nM, read-out: Percent Control.
Description: as §2

The next test addresses T21, PDPK1 (Homo sapiens, UniProt O15530).
T21 construct: purchased Eurofins DiscoverX KINOMEscan
As to the kind of experiment: KINOMEscan binding assay at 1 μM, PDPK1. Particulars: Compound Concentration 1000 nM; read-out: Percent Control.
Description: as §2

The target of test [2] is T22, JAK3(JH1domain-catalytic) (Homo sapiens, UniProt P52333).
T22 construct: JAK3(JH1domain-catalytic); purchased Eurofins DiscoverX KINOMEscan
T22 sequence (P52333 813-1124 limits assumed): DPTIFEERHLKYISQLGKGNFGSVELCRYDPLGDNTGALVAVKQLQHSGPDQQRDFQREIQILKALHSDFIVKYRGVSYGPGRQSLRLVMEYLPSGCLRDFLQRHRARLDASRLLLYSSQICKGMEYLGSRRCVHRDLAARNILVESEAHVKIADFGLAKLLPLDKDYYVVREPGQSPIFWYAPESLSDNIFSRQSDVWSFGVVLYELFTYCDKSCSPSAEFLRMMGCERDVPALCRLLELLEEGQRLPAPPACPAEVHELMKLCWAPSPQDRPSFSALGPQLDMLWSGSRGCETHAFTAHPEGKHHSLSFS
The test is described as follows: KINOMEscan at 1 μM, JAK3(JH1domain-catalytic). Format: binding. The settings on record: 1000 nM, read-out: Percent Control.
Description: as §2

In a further test the target is T23, HIPK3 (Homo sapiens, UniProt Q9H422).
T23 construct: purchased Eurofins DiscoverX KINOMEscan
As to the kind of experiment: KINOMEscan at 1 μM, HIPK3. Particulars: 1000 nM, read-out: Percent Control. It counts as binding.
Description: as §2

For another test, the target named is T24, ERK3 (Homo sapiens, UniProt Q16659).
T24 construct: purchased Eurofins DiscoverX KINOMEscan
As to the kind of experiment: KINOMEscan at 1 μM, ERK3. It counts as binding. Particulars: 1000 nM, read-out: Percent Control.
Description: as §2

A further test addresses T25, SBK1 (Homo sapiens, UniProt Q52WX2).
T25 construct: purchased Eurofins DiscoverX KINOMEscan
The test is described as follows: KINOMEscan at 1 μM, SBK1. It counts as binding. The settings on record: 1000 nM, read-out: Percent Control.
Description: as §2

The next test deals with T26, TSSK1B (Homo sapiens, UniProt Q9BXA7).
T26 construct: purchased Eurofins DiscoverX KINOMEscan
T26 sequence (Q9BXA7 whole entry): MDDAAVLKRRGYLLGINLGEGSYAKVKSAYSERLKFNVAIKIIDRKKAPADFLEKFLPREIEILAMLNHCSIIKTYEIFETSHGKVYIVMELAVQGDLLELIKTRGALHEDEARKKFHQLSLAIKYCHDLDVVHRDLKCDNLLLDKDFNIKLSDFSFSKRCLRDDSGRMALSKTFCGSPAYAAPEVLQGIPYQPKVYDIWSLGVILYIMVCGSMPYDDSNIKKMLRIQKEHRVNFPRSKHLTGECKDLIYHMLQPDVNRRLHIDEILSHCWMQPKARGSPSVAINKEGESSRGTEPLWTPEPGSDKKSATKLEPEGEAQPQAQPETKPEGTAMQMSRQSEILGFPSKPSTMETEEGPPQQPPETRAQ
As to the kind of experiment: KINOMEscan at 1 μM, TSSK1B. Format: binding. The settings on record: 1000 nM, read-out: Percent Control.
Description: as §2

The next test concerns the target T27, TAK1 (Homo sapiens, UniProt O43318).
T27 construct: purchased Eurofins DiscoverX KINOMEscan
The test is described as follows: KINOMEscan at 1 μM, TAK1. Format: binding. Particulars: 1000 nM, read-out: Percent Control.
Description: as §2

The next test concerns the target T28, STK36 (Homo sapiens, UniProt Q9NRP7).
T28 construct: purchased Eurofins DiscoverX KINOMEscan
As to the kind of experiment: KINOMEscan at 1 μM, STK36. It counts as binding. Particulars: 1000 nM, read-out: Percent Control.
Description: as §2

A further test has as its target T29, LOK (Homo sapiens, UniProt O94804).
T29 construct: purchased Eurofins DiscoverX KINOMEscan
The test is described as follows: KINOMEscan binding assay at 1 μM, LOK. The settings on record: Compound Concentration 1000 nM; read-out: Percent Control.
Description: as §2

The target in a further test is T30, BLK (Homo sapiens, UniProt P51451).
T30 construct: purchased Eurofins DiscoverX KINOMEscan
The test is described as follows: KINOMEscan at 1 μM, BLK. Format: binding. The settings on record: 1000 nM, read-out: Percent Control.
Description: as §2

A further test addresses T31, ULK3 (Homo sapiens, UniProt Q6PHR2).
T31 construct: purchased Eurofins DiscoverX KINOMEscan
As to the kind of experiment: KINOMEscan at 1 μM, ULK3. It counts as binding. Particulars: 1000 nM, read-out: Percent Control.
Description: as §2

The next test deals with T32, IRAK4 (Homo sapiens, UniProt Q9NWZ3).
T32 construct: purchased Eurofins DiscoverX KINOMEscan
As to the kind of experiment: KINOMEscan at 1 μM, IRAK4. It counts as binding. The settings on record: 1000 nM, read-out: Percent Control.
Description: as §2

T31 sequence (Q6PHR2 whole entry): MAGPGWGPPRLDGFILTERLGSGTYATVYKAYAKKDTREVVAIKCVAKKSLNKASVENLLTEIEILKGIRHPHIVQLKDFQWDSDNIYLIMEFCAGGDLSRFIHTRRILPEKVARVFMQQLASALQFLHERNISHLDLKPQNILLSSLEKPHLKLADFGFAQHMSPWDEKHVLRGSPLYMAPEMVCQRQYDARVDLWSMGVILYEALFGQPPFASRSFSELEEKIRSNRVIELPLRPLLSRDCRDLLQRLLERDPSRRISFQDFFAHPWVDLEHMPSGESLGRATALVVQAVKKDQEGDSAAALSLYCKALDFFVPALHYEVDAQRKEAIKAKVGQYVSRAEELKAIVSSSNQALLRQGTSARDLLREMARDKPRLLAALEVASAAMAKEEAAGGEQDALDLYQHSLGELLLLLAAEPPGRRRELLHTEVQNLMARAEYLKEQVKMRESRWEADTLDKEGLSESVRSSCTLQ
T1 sequence (Q15759 whole entry): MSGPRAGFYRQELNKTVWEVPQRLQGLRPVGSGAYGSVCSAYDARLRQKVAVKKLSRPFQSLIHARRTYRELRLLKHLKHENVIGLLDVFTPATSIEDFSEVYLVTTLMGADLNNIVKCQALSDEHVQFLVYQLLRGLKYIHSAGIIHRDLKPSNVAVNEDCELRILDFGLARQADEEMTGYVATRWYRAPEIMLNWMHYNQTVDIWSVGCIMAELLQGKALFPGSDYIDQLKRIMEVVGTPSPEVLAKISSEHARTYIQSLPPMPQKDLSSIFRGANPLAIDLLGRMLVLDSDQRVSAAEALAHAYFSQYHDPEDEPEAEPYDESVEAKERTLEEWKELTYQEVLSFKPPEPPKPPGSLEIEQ
T25 sequence (Q52WX2 whole entry): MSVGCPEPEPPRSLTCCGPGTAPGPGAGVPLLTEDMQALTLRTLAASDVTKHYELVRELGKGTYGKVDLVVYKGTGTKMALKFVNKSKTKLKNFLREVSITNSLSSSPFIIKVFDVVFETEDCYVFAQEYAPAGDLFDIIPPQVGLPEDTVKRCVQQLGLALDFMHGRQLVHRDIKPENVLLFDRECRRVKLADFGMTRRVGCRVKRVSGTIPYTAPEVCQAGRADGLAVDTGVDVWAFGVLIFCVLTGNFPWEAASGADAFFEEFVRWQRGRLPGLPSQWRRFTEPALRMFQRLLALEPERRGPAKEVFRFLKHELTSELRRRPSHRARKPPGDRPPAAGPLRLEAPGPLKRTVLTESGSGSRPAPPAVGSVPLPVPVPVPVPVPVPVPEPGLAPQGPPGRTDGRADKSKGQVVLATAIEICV

Regarding `Cc1cccc(-c2cnc3occ(-c4ccc(C(=O)O)c(C5CCCC5)c4)c3c2)c1` [SGC-CAMKK2-1 (YL-36)], the remaining binding at 1 µM on p38-beta worked out at 100%; on MAP3K1 it was 100%; in test [1], 87%; at MRCKA, 100%; on MAP3K3, 88%; at ERK2 it was 81%. Moreover, the remaining binding at 1 µM at RIOK1 was 92%; on MARK1, 100%; on PCTK2 it was 100%; on ULK1, 62%; at NEK3, 100%; on LZK it was 100%. Moreover, the remaining binding at 1 µM at EPHB6 stood at 43%; at FGR it was 100%; at TRPM6, 100%; at ICK, 100%; on MET(M1250T), 100%. Further, the “Percent Control” value with EGFR(L747-T751del,Sins) worked out at 85%.
For `O=C(O)c1ccc(-c2coc3ncc(-c4ccccc4)cc23)cc1Cl` [SGC-CAMKK2-1N (UNC-YL-83)], the remaining binding at 1 µM at EPHA3 was found to be 92%; on ITK, 100%; on CAMK1, 62%; at PDPK1, 100%; in test [2] it was 87%; at HIPK3, 40%. The remaining binding at 1 µM at ERK3 came out at 92%; at SBK1, 67%; on TSSK1B it was 83%; at TAK1 it was 62%; at STK36 it was 75%; at LOK it was 100%. Besides, the remaining binding at 1 µM on BLK was determined as 87%; on ULK3 it was 82%; on IRAK4, 72%.
